Results on nine compounds are retold here after PubChem BioAssay (NCI).

Some test systems named below: SNB-78 CNS; HCT-15 colon; SW-620 colon; M19-MEL melanoma; HOP-62 NSCLC; A498 renal; NCI-H522 lung; UO-31 renal; DLD-1 colon; SNB-19 CNS; HCC-2998 colon.
Common to all, as to experiment: inhibition of tumour cell growth, NCI panel, 48 h

Structures are written as SMILES. Where “and” joins values, the source holds several entries; their conditions need not be identical. Identical values can stand only once.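 Compound exposure: 48 hours, 5 concentrations, 96-well plates. Abbreviation: GI50, concentration required for 50% inhibition of growth. At the TGI there is no net growth.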

In the case of `CNC(=O)OCc1nc(SC)n(C)c1COC(=O)NC`, the TGI in the experiment on SNB-78 CNS was found to be 359 µM; with HCT-15 colon, 410 µM; in the experiment with SW-620 colon it was 685 µM; with M19-MEL melanoma it was 369 µM; with HOP-62 NSCLC, 92.2 µM; in the experiment on A498 renal it was 386 µM. Also, the TGI with NCI-H522 lung was found to be 246 µM; in the experiment with UO-31 renal, 444 µM; with DLD-1 colon, 494 µM; in the experiment with SNB-19 CNS, 743 µM; with HCC-2998 colon, 307 µM.
Take `O=C(/C=C/c1ccccc1O)c1ccccc1Cl`: the TGI in the experiment with SNB-78 CNS, with HCT-15 colon, in the experiment on SW-620 colon, in the experiment on M19-MEL melanoma, in the experiment with HOP-62 NSCLC and in the experiment with A498 renal was more than 100 µM each time. For the same compound, the TGI was 80.4 µM with NCI-H522 lung; more than 100 µM with UO-31 renal; more than 100 µM in the experiment on DLD-1 colon; more than 100 µM in the experiment with SNB-19 CNS; more than 100 µM in the experiment with HCC-2998 colon.
Take `CC1(C)OC(=O)C(=C2CCC(C(=O)Nc3cccc(C(F)(F)F)c3)N2)C(=O)O1` (stereo not given): the TGI in the experiment with SNB-78 CNS, in the experiment on HCT-15 colon, in the experiment with SW-620 colon, with M19-MEL melanoma, in the experiment with HOP-62 NSCLC and in the experiment on A498 renal was more than 100 µM each time. Also, the TGI in the experiment with NCI-H522 lung, in the experiment on UO-31 renal, in the experiment with DLD-1 colon, in the experiment with SNB-19 CNS and in the experiment with HCC-2998 colon was more than 100 µM in each case.
For `COc1cc2c(c(OC)c1OC)C(=O)NCCC2`, the TGI in the experiment with SNB-78 CNS, in the experiment with HCT-15 colon, in the experiment on SW-620 colon, with M19-MEL melanoma, in the experiment on HOP-62 NSCLC and with A498 renal was more than 100 µM throughout. Also, the TGI with NCI-H522 lung, in the experiment on UO-31 renal, with DLD-1 colon, in the experiment on SNB-19 CNS and in the experiment with HCC-2998 colon was more than 100 µM in each case.
Regarding `COc1ccccc1C(=O)N(Cc1ccccc1)c1ccc(Cl)c(C(=O)OC(C)C)c1`, the TGI in the experiment with SNB-78 CNS is 78 µM; in the experiment on HCT-15 colon it was more than 100 µM; in the experiment on SW-620 colon, more than 100 µM; in the experiment on M19-MEL melanoma it was more than 100 µM; with HOP-62 NSCLC it was 85.8 µM; in the experiment with A498 renal, more than 100 µM. Further, the TGI in the experiment on NCI-H522 lung was 18.3 µM; with UO-31 renal, 54.1 µM; in the experiment with DLD-1 colon it was more than 100 µM; in the experiment with SNB-19 CNS it was more than 100 µM; with HCC-2998 colon it was more than 100 µM.
As for `COc1ccccc1NC(=O)C1=C(C)NC(C)=C(C(=O)Nc2ccccc2OC)C1c1ccco1`, the TGI is more than 100 µM with SNB-78 CNS; more than 100 µM in the experiment on HCT-15 colon; more than 100 µM in the experiment on SW-620 colon; more than 100 µM in the experiment with M19-MEL melanoma; 74.6 µM with HOP-62 NSCLC; 38.4 µM in the experiment with A498 renal. For the same compound, the TGI with NCI-H522 lung was 8.6 µM; with UO-31 renal, more than 83.5 µM; with DLD-1 colon, more than 100 µM; with SNB-19 CNS it was 67.6 µM; in the experiment with HCC-2998 colon, 40.7 µM.
As to `COc1cccc(/C=N\NC(=O)C(C)SC(C)C(=O)N/N=C/c2cccc(OC)c2)c1` (stereo not given), the TGI was more than 100 µM in the experiment on SNB-78 CNS; more than 100 µM in the experiment on HCT-15 colon; more than 100 µM in the experiment on SW-620 colon; more than 100 µM in the experiment on M19-MEL melanoma; 33.1 µM with HOP-62 NSCLC; 27 µM in the experiment on A498 renal. In addition, the TGI in the experiment with NCI-H522 lung is 59.1 µM; in the experiment on UO-31 renal, more than 85.5 µM; in the experiment on DLD-1 colon it was more than 100 µM; in the experiment with SNB-19 CNS it was 45.5 µM; in the experiment with HCC-2998 colon it was 47.5 µM.
In the case of `C[C@H]1CC[P+](C)(c2ccccc2)C1` (stereo not given in full), the TGI with SNB-78 CNS, in the experiment with HCT-15 colon, in the experiment with SW-620 colon, in the experiment on M19-MEL melanoma, in the experiment on HOP-62 NSCLC and in the experiment on A498 renal was more than 100 µM throughout. The TGI with NCI-H522 lung, with UO-31 renal, in the experiment on DLD-1 colon, in the experiment with SNB-19 CNS and with HCC-2998 colon was more than 100 µM throughout.
With `NCCCN=c1ccc2c3c1c(O)c1c(O)ccc(=O)c1c3[nH]n2CCNCCO`, the TGI with SNB-78 CNS is 4.15 µM; with HCT-15 colon, 25 µM and 112 µM; in the experiment on SW-620 colon, 9.98 µM and 40.5 µM; in the experiment with M19-MEL melanoma it was more than 250 µM; in the experiment with HOP-62 NSCLC, 11.1 µM and 9.68 µM; in the experiment on A498 renal, 7.19 µM and 8.57 µM. Besides, the TGI in the experiment on NCI-H522 lung is 4.69 µM and 3.28 µM; in the experiment on UO-31 renal, 24.5 µM and 98.1 µM; with DLD-1 colon, 159 µM; with SNB-19 CNS it was 6.57 µM and 14.1 µM; in the experiment on HCC-2998 colon, 11.4 µM and 26.8 µM. Also, the GI50 is 1.4 µM in the experiment on HCT-15 colon; 0.484 µM with HOP-62 NSCLC; 0.55 µM in the experiment on NCI-H522 lung; 3.78 µM and 14.2 µM with UO-31 renal; 0.821 µM in the experiment with SNB-19 CNS; 1.6 µM and 3.18 µM in the experiment on HCC-2998 colon.
